In ChEMBL document CHEMBL1201861, “Genomics of Drug Sensitity in Cancer screening data, Wellcome Trust Sanger Institute”:

Tests used:
Experiment in all cases: cells
Conditions in all cases: Homo sapiens
L-540 = assay type: functional, cell-based;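 further: growth inhibition of the human L-540 cell line, read out with a viability assay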
Description: SANGER: Inhibition of human L-540 cell growth in a cell viability assay.

MEG-01 = assay type: functional, cell-based;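 further: growth inhibition of MEG-01 cells, read out by a cell viability assay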
Description: SANGER: Inhibition of human MEG-01 cell growth in a cell viability assay.

MMAC-SF = assay type: functional, cell-based;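 further: growth inhibition of human MMAC-SF cells, read out with a cell viability assay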
Description: SANGER: Inhibition of human MMAC-SF cell growth in a cell viability assay.

BT-474 = assay type: functional, cell-based
Description: SANGER: Inhibition of human BT-474 cell growth in a cell viability assay.

C2BBe1 = assay type: functional, cell-based;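 further: growth inhibition of C2BBe1 cells, read out through a viability assay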
Description: SANGER: Inhibition of human C2BBe1 cell growth in a cell viability assay.

PFSK-1 = assay type: functional, cell-based;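 further: cell viability assay measuring how strongly compounds suppress growth of human PFSK-1 cells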
Description: SANGER: Inhibition of human PFSK-1 cell growth in a cell viability assay.

SF-268 = assay type: functional, cell-based;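 further: growth inhibition of SF-268 cells determined with a cell viability assay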
Description: SANGER: Inhibition of human SF268 cell growth in a cell viability assay.

SCC-9 = assay type: functional, cell-based;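 further: Read-out is a cell viability assay, with values giving inhibition of cell growth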
Description: SANGER: Inhibition of human SCC-9 cell growth in a cell viability assay.

NCI-H358 = assay type: functional, cell-based;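 further: growth inhibition of NCI-H358 human cells, read out with a cell viability assay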
Description: SANGER: Inhibition of human NCI-H358 cell growth in a cell viability assay.

SW 962 = assay type: functional, cell-based;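 further: growth inhibition of human SW962 cells, read out by a cell viability assay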
Description: SANGER: Inhibition of human SW962 cell growth in a cell viability assay.

GCIY = assay type: functional, cell-based;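 further: growth inhibition of the human GCIY cell line, read out by a cell viability assay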
Description: SANGER: Inhibition of human GCIY cell growth in a cell viability assay.

MS-1 = assay type: functional, cell-based;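 further: growth inhibition of MS-1 cells, read out by cell viability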
Description: SANGER: Inhibition of human MS-1 cell growth in a cell viability assay.

SNB-75 = assay type: functional, cell-based;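 further: cell viability assay measuring growth inhibition of human SNB-75 cells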
Description: SANGER: Inhibition of human SNB75 cell growth in a cell viability assay.

CTV-1 = assay type: functional, cell-based;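 further: growth inhibition of the cell line, read out with a cell viability assay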
Description: SANGER: Inhibition of human CTV-1 cell growth in a cell viability assay.

IST-MEL1 = assay type: functional, cell-based;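 further: growth inhibition of the cell line, read out with a cell viability assay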
Description: SANGER: Inhibition of human IST-MEL1 cell growth in a cell viability assay.

LXF-289 cell line = assay type: functional, cell-based
Description: SANGER: Inhibition of human LXF-289 cell growth in a cell viability assay.

KM-H2 = assay type: functional, cell-based;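 further: growth inhibition of KM-H2 cells, read out by a cell viability assay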
Description: SANGER: Inhibition of human KM-H2 cell growth in a cell viability assay.

VA-ES-BJ = assay type: functional, cell-based;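 further: growth inhibition of the VA-ES-BJ cell line, read out by a cell viability assay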
Description: SANGER: Inhibition of human VA-ES-BJ cell growth in a cell viability assay.

RS4-11 = assay type: functional, cell-based;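 further: growth inhibition of RS4-11 cells, read out by a cell viability assay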
Description: SANGER: Inhibition of human RS4-11 cell growth in a cell viability assay.

HuTu80 = assay type: functional, cell-based, HUTU-80;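 further: growth inhibition of HuTu80 human cells, determined with a cell viability readout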
Description: SANGER: Inhibition of human HUTU-80 cell growth in a cell viability assay.

NB6 = assay type: functional, cell-based;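 further: growth inhibition of NB6 cells, read out by a cell viability assay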
Description: SANGER: Inhibition of human NB6 cell growth in a cell viability assay.

HC-1 = assay type: functional, cell-based;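 further: growth inhibition of HC-1 cells measured by a cell viability assay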
Description: SANGER: Inhibition of human HC-1 cell growth in a cell viability assay.

SK-N-FI = assay type: functional, cell-based;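 further: cell viability assay measuring growth inhibition of human SK-N-FI cells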
Description: SANGER: Inhibition of human SK-N-FI cell growth in a cell viability assay.

EW-24 = assay type: functional, cell-based;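 further: human EW-24 cancer cell line, growth inhibition read out via a cell viability assay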
Description: SANGER: Inhibition of human EW-24 cell growth in a cell viability assay.

IST-MES1 = assay type: functional, cell-based;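 further: growth inhibition of IST-MES1 cells, measured with a cell viability assay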
Description: SANGER: Inhibition of human IST-MES1 cell growth in a cell viability assay.

SW780 = assay type: functional, cell-based;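 further: growth inhibition of the cells, read out with a cell viability assay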
Description: SANGER: Inhibition of human SW780 cell growth in a cell viability assay.

NCI-H1650 = assay type: functional, cell-based;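 further: growth inhibition of human NCI-H1650 cells measured by a cell viability assay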
Description: SANGER: Inhibition of human NCI-H1650 cell growth in a cell viability assay.

KNS-81-FD = assay type: functional, cell-based;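 further: growth inhibition of KNS-81-FD cells, read out with a cell viability assay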
Description: SANGER: Inhibition of human KNS-81-FD cell growth in a cell viability assay.

CAL-33 = assay type: functional, cell-based;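 further: growth inhibition of CAL-33 cells, read out with a cell viability assay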
Description: SANGER: Inhibition of human CAL-33 cell growth in a cell viability assay.

NKM-1 = assay type: functional, cell-based;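 further: growth inhibition of NKM-1 cells, read out with a cell viability assay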
Description: SANGER: Inhibition of human NKM-1 cell growth in a cell viability assay.

CP66-MEL = assay type: functional, cell-based;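 further: growth inhibition of CP66-MEL cells determined in a cell viability assay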
Description: SANGER: Inhibition of human CP66-MEL cell growth in a cell viability assay.

COLO-684 = assay type: functional, cell-based
Description: SANGER: Inhibition of human COLO-684 cell growth in a cell viability assay.

NCI-H720 = assay type: functional, cell-based;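 further: growth inhibition of human NCI-H720 cells determined by a cell viability assay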
Description: SANGER: Inhibition of human NCI-H720 cell growth in a cell viability assay.

TE-12 = assay type: functional, cell-based;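 further: growth inhibition of TE-12 cells, read out by a cell viability assay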
Description: SANGER: Inhibition of human TE-12 cell growth in a cell viability assay.

AM-38 = assay type: functional, cell-based;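 further: growth inhibition of AM-38 cells of human origin, read out by a cell viability assay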
Description: SANGER: Inhibition of human AM-38 cell growth in a cell viability assay.

RH-1 = assay type: functional, cell-based;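 further: growth inhibition of human RH-1 cells, read out with a cell viability assay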
Description: SANGER: Inhibition of human RH-1 cell growth in a cell viability assay.

SCC-15 = assay type: functional, cell-based;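 further: growth inhibition of SCC-15 cells, read out with a cell viability assay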
Description: SANGER: Inhibition of human SCC-15 cell growth in a cell viability assay.

RPMI-8866 = assay type: functional, cell-based
Description: SANGER: Inhibition of human RPMI-8866 cell growth in a cell viability assay.

MZ7-mel = assay type: functional, cell-based;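 further: growth inhibition of human MZ7-mel cells, measured by a cell viability assay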
Description: SANGER: Inhibition of human MZ7-mel cell growth in a cell viability assay.

Becker = assay type: functional, cell-based;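 further: growth inhibition of Becker cells, read out with a cell viability assay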
Description: SANGER: Inhibition of human Becker cell growth in a cell viability assay.

DU-4475 = assay type: functional, cell-based
Description: SANGER: Inhibition of human DU-4475 cell growth in a cell viability assay.

MSTO-211H = assay type: functional, cell-based
Description: SANGER: Inhibition of human MSTO-211H cell growth in a cell viability assay.

HCC 2998 = assay type: functional, cell-based;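 further: growth inhibition of human HCC2998 cells, measured with a cell viability read-out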
Description: SANGER: Inhibition of human HCC2998 cell growth in a cell viability assay.

NB5 = assay type: functional, cell-based;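 further: growth inhibition of NB5 cells, read out as cell viability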
Description: SANGER: Inhibition of human NB5 cell growth in a cell viability assay.

D-263MG = assay type: functional, cell-based
Description: SANGER: Inhibition of human D-263MG cell growth in a cell viability assay.

ATN-1 = assay type: functional, cell-based;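 further: growth inhibition of human ATN-1 cells, read out with a cell viability assay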
Description: SANGER: Inhibition of human ATN-1 cell growth in a cell viability assay.

GI-ME-N = assay type: functional, cell-based;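 further: growth inhibition of human GI-ME-N cells, read out with a cell viability assay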
Description: SANGER: Inhibition of human GI-ME-N cell growth in a cell viability assay.

Lu-65 = assay type: functional, cell-based;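 further: growth inhibition of Lu-65 cancer cells, read out by a cell viability assay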
Description: SANGER: Inhibition of human LU-65 cell growth in a cell viability assay.

SF-126 = assay type: functional, cell-based;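 further: growth inhibition of human SF126 cells, read out with a cell viability assay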
Description: SANGER: Inhibition of human SF126 cell growth in a cell viability assay.

ES6 = assay type: functional, cell-based;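 further: growth inhibition of human ES6 cells, read out with a cell viability assay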
Description: SANGER: Inhibition of human ES6 cell growth in a cell viability assay.

KURAMOCHI = assay type: functional, cell-based;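 further: growth inhibition of KURAMOCHI cells, read out with a cell viability assay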
Description: SANGER: Inhibition of human KURAMOCHI cell growth in a cell viability assay.

Mo = assay type: functional, cell-based
Description: SANGER: Inhibition of human Mo-T cell growth in a cell viability assay.

NCI-H526 = assay type: functional, cell-based;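 further: growth inhibition of the human NCI-H526 cell line, measured by a cell viability assay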
Description: SANGER: Inhibition of human NCI-H526 cell growth in a cell viability assay.

DB = assay type: functional, cell-based
Description: SANGER: Inhibition of human DB cell growth in a cell viability assay.

TGBC24TKB = assay type: functional, cell-based;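 further: growth inhibition of human TGBC24TKB cells, read out with a cell viability assay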
Description: SANGER: Inhibition of human TGBC24TKB cell growth in a cell viability assay.

MV4-11 = assay type: functional, cell-based, MV-4-11;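 further: cell viability readout measuring growth inhibition of human MV-4-11 cells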
Description: SANGER: Inhibition of human MV-4-11 cell growth in a cell viability assay.

HO-1-N-1 = assay type: functional, cell-based
Description: SANGER: Inhibition of human HO-1-N-1 cell growth in a cell viability assay.

HCC1599 = assay type: functional, cell-based
Description: SANGER: Inhibition of human HCC1599 cell growth in a cell viability assay.

NEC8 = assay type: functional, cell-based
Description: SANGER: Inhibition of human NEC8 cell growth in a cell viability assay.

SiHa = assay type: functional, cell-based
Description: SANGER: Inhibition of human SiHa cell growth in a cell viability assay.

NCI-H292 = assay type: functional, cell-based
Description: SANGER: Inhibition of human NCI-H292 cell growth in a cell viability assay.

KE-37 = assay type: functional, cell-based
Description: SANGER: Inhibition of human KE-37 cell growth in a cell viability assay.

NCI-H1395 = assay type: functional, cell-based
Description: SANGER: Inhibition of human NCI-H1395 cell growth in a cell viability assay.

BE-13 = assay type: functional, cell-based
Description: SANGER: Inhibition of human BE-13 cell growth in a cell viability assay.

LB373-MEL-D = assay type: functional, cell-based
Description: SANGER: Inhibition of human LB373-MEL-D cell growth in a cell viability assay.

G-401 = assay type: functional, cell-based
Description: SANGER: Inhibition of human G-401 cell growth in a cell viability assay.

C/C=C(/C)C(=O)O[C@H]1C(C)=C2[C@H]([C@@H]1OC(=O)CCCCCCC)[C@@](C)(OC(C)=O)C[C@H](OC(=O)CCC)[C@@]1(O)[C@H]2OC(=O)[C@@]1(C)O [THAPSIGARGIN]
IC50 (L-540): 75.2 nM
IC50 (MEG-01): 10.8 nM
IC50 (MMAC-SF): 28.3 nM
IC50 (BT-474): 210 nM
IC50 (C2BBe1): 29.3 nM
IC50 (PFSK-1): 12.8 nM
IC50 (SF-268): 2.26 nM
IC50 (SCC-9): 447 nM
IC50 (NCI-H358): < 2 nM
IC50 (SW 962): 6.85 nM
IC50 (GCIY): 53.5 nM
IC50 (MS-1): 29.5 nM
IC50 (SNB-75): 32.6 nM
IC50 (CTV-1): 5.2 nM
IC50 (IST-MEL1): 0.788 nM
IC50 (LXF-289 cell line): < 2 nM
IC50 (KM-H2): < 2 nM
IC50 (VA-ES-BJ): 18.2 nM
IC50 (RS4-11): 1.3 nM
IC50 (HuTu80): 0.657 nM
IC50 (NB6): 4.58 nM
IC50 (HC-1): 109 nM
IC50 (SK-N-FI): 88.2 nM
IC50 (EW-24): 149 nM
IC50 (IST-MES1): 138 nM
IC50 (SW780): > 512 nM
IC50 (NCI-H1650): 147 nM
IC50 (KNS-81-FD): > 512 nM
IC50 (CAL-33): 30.7 nM
IC50 (NKM-1): 6.12 nM
IC50 (CP66-MEL): 3.6 nM
IC50 (COLO-684): 345 nM
IC50 (NCI-H720): > 512 nM
IC50 (TE-12): 10.6 nM
IC50 (AM-38): 14.8 nM
IC50 (RH-1): 43.4 nM
IC50 (SCC-15): 1.12 nM
IC50 (RPMI-8866): > 512 nM
IC50 (MZ7-mel): 107 nM
IC50 (Becker): 135 nM
IC50 (DU-4475): 5.97 nM
IC50 (MSTO-211H): 293 nM
IC50 (HCC 2998): < 2 nM
IC50 (NB5): 66.6 nM
IC50 (D-263MG): 37.2 nM
IC50 (ATN-1): 32 nM
IC50 (GI-ME-N): 18.2 nM
IC50 (Lu-65): 8.49 nM
IC50 (SF-126): 38.3 nM
IC50 (ES6): < 2 nM
IC50 (KURAMOCHI): 5.44 nM
IC50 (Mo): > 512 nM
IC50 (NCI-H526): 34 nM
IC50 (DB): 2.55 nM
IC50 (TGBC24TKB): < 2 nM
IC50 (MV4-11): 11 nM
IC50 (HO-1-N-1): > 512 nM
IC50 (HCC1599): 194 nM
IC50 (NEC8): 11 nM
IC50 (SiHa): > 512 nM
IC50 (NCI-H292): 14.9 nM
IC50 (KE-37): 7.53 nM
IC50 (NCI-H1395): 176 nM
IC50 (BE-13): 7.35 nM
IC50 (LB373-MEL-D): 29.1 nM
IC50 (G-401): 25.1 nM
